Reference: the NIST ThermoML archive (doi:10.1021/je800110r)
Where “and” joins values, the source holds several entries; their conditions need not be identical. Equal values may be shown once.

Conditions: Liquid, Vibrating tube method

CCCCCCCCCC [decane]
Conditions	mass density
283.14 K, 21786 kPa	752.1 kg/m3
283.14 K, 21835 kPa	752.2 kg/m3
283.14 K, 21866 kPa	752.3 kg/m3
283.14 K, 22948 kPa	752.7 kg/m3
283.14 K, 22974 kPa	752.9 kg/m3
283.14 K, 23083 kPa	752.9 kg/m3
283.14 K, 24091 kPa	753.6 kg/m3
283.14 K, 24111 kPa	753.6 kg/m3
283.14 K, 24206 kPa	753.6 kg/m3
283.14 K, 25452 kPa	754.4 kg/m3
283.14 K, 27407 kPa	755.5 kg/m3
283.14 K, 27430 kPa	755.5 kg/m3
283.14 K, 27471 kPa	755.7 kg/m3
283.14 K, 27497 kPa	755.6 kg/m3
283.14 K, 27531 kPa	755.7 kg/m3
283.14 K, 27558 kPa	755.6 kg/m3
283.14 K, 27588 kPa	755.8 kg/m3
283.14 K, 29091 kPa	756.5 kg/m3
283.14 K, 29172 kPa	756.6 kg/m3
283.14 K, 29227 kPa	756.6 kg/m3
283.14 K, 29531 kPa	756.9 kg/m3
283.14 K, 29628 kPa	756.9 kg/m3
283.14 K, 29720 kPa	756.8 kg/m3
283.14 K, 29749 kPa	756.9 kg/m3
283.14 K, 29785 kPa	756.9 kg/m3
283.14 K, 29818 kPa	757 kg/m3
283.14 K, 29843 kPa	756.9 kg/m3
283.14 K, 29867 kPa	757.1 kg/m3
283.14 K, 29895 kPa	757 kg/m3
283.14 K, 29928 kPa	757.2 kg/m3
283.14 K, 29961 kPa	757 kg/m3
283.14 K, 29990 kPa	757.1 kg/m3
283.14 K, 30019 kPa	757.1 kg/m3
283.14 K, 30044 kPa	757.1 kg/m3
283.14 K, 30081 kPa	757.1 kg/m3
283.14 K, 30115 kPa	757.2 kg/m3
283.14 K, 30145 kPa	757.1 kg/m3
283.14 K, 30807 kPa	757.7 kg/m3
283.14 K, 30934 kPa	757.6 kg/m3
283.14 K, 31526 kPa	758 kg/m3
283.14 K, 31540 kPa	758 kg/m3
283.14 K, 31581 kPa	758.1 kg/m3
283.14 K, 31898 kPa	758.1 kg/m3
283.14 K, 31921 kPa	758.2 kg/m3
283.14 K, 31938 kPa	758.2 kg/m3
283.14 K, 31958 kPa	758.3 kg/m3
283.14 K, 31979 kPa	758.2 kg/m3
283.14 K, 32000 kPa	758.3 kg/m3
283.14 K, 32020 kPa	758.2 kg/m3
283.14 K, 32038 kPa	758.2 kg/m3
283.14 K, 32070 kPa	758.2 kg/m3
283.14 K, 32106 kPa	758.4 kg/m3
283.14 K, 32127 kPa	758.3 kg/m3
283.14 K, 32164 kPa	758.3 kg/m3
283.14 K, 32190 kPa	758.4 kg/m3
283.14 K, 32578 kPa	758.6 kg/m3
283.14 K, 33321 kPa	759.1 kg/m3
283.14 K, 33347 kPa	759 kg/m3
283.14 K, 33367 kPa	759 kg/m3
283.14 K, 33396 kPa	759 kg/m3
283.14 K, 33425 kPa	758.9 kg/m3
283.14 K, 33445 kPa	759 kg/m3
283.14 K, 33471 kPa	759.1 kg/m3
283.14 K, 33494 kPa	759.1 kg/m3
283.14 K, 33514 kPa	759 kg/m3
283.14 K, 34282 kPa	759.5 kg/m3
283.14 K, 34384 kPa	759.6 kg/m3
283.14 K, 34405 kPa	759.6 kg/m3
283.14 K, 34424 kPa	759.7 kg/m3
283.14 K, 34465 kPa	759.7 kg/m3
283.15 K, 312 kPa	737.7 kg/m3 and 737.6 kg/m3
283.15 K, 314 kPa	737.5 kg/m3
283.15 K, 361 kPa	737.6 kg/m3
283.15 K, 417 kPa	737.6 kg/m3
283.15 K, 446 kPa	737.8 kg/m3
283.15 K, 603 kPa	737.9 kg/m3
283.15 K, 1468 kPa	738.4 kg/m3
283.15 K, 1599 kPa	738.6 kg/m3
283.15 K, 1655 kPa	738.6 kg/m3
283.15 K, 1727 kPa	738.5 kg/m3
283.15 K, 1798 kPa	738.8 kg/m3
283.15 K, 1897 kPa	738.7 kg/m3
283.15 K, 1959 kPa	738.9 kg/m3
283.15 K, 2028 kPa	738.8 kg/m3
283.15 K, 2118 kPa	738.9 kg/m3
283.15 K, 2175 kPa	739 kg/m3
283.15 K, 2229 kPa	739 kg/m3
283.15 K, 2291 kPa	739.1 kg/m3
283.15 K, 2327 kPa	739.1 kg/m3
283.15 K, 2370 kPa	739 kg/m3
283.15 K, 2425 kPa	739.1 kg/m3
283.15 K, 2520 kPa	739.2 kg/m3
283.15 K, 2614 kPa	739.3 kg/m3
283.15 K, 2634 kPa	739.3 kg/m3
283.15 K, 2647 kPa	739.4 kg/m3
283.15 K, 2708 kPa	739.4 kg/m3
283.15 K, 2730 kPa	739.4 kg/m3
283.15 K, 2749 kPa	739.3 kg/m3
283.15 K, 2767 kPa	739.4 kg/m3
283.15 K, 2789 kPa	739.4 kg/m3
283.15 K, 2807 kPa	739.5 kg/m3
283.15 K, 2822 kPa	739.5 kg/m3
283.15 K, 2835 kPa	739.4 kg/m3
283.15 K, 2864 kPa	739.6 kg/m3
283.15 K, 3136 kPa	739.7 kg/m3
283.15 K, 3226 kPa	739.7 kg/m3
283.15 K, 3273 kPa	739.9 kg/m3
283.15 K, 3287 kPa	739.8 kg/m3
283.15 K, 3296 kPa	739.8 kg/m3
283.15 K, 3307 kPa	739.9 kg/m3
283.15 K, 3341 kPa	739.9 kg/m3
283.15 K, 3352 kPa	739.8 kg/m3
283.15 K, 3361 kPa	739.8 kg/m3
283.15 K, 3373 kPa	739.9 kg/m3
283.15 K, 3380 kPa	740 kg/m3
283.15 K, 3390 kPa	739.9 kg/m3
283.15 K, 3400 kPa	739.8 kg/m3
283.15 K, 3408 kPa	740 kg/m3
283.15 K, 3417 kPa	739.9 kg/m3
283.15 K, 3426 kPa	740 kg/m3
283.15 K, 3434 kPa	739.9 kg/m3
283.15 K, 3443 kPa	739.8 kg/m3
283.15 K, 3452 kPa	740 kg/m3
283.15 K, 3461 kPa	739.9 kg/m3
283.15 K, 3471 kPa	740 kg/m3
283.15 K, 3485 kPa	740 kg/m3
283.15 K, 3496 kPa	739.9 kg/m3
283.15 K, 3507 kPa	740.1 kg/m3
283.15 K, 3517 kPa	740 kg/m3
283.15 K, 3528 kPa	739.9 kg/m3
283.15 K, 3539 kPa	740 kg/m3
283.15 K, 3552 kPa	740 kg/m3
283.15 K, 3563 kPa	740.1 kg/m3
283.15 K, 3575 kPa	740 kg/m3
283.15 K, 3586 kPa	740.2 kg/m3
283.15 K, 3601 kPa	740 kg/m3
283.15 K, 3612 kPa	740.1 kg/m3
